# Results reported in US20240374595A1, “SUBSTITUTED 1,1'-BIPHENYL COMPOUNDS, ANALOGUES THEREOF, AND METHODS USING SAME” (Arbutus Biopharma Corporation, priority 2018, published 2024).
# Target: PD-L1 (Homo sapiens (Human), UniProt Q9NZQ7)
# Assay: PD-L1 HTRF assay (PD-1/PD-L1 interaction)
# Assay type: binding
# Conditions: PD-L1 His 6 nM, PD-1 Fc 6 nM; inhibitors 3-fold diluted from 20 μM
# Experimental: PD-L1 small molecule inhibitors were diluted by 3-fold starting from 20 μM and a final concentration of 0.001 μM and added to the well. PD-1 Fc protein was added at the final concentration of 6 nM. PD-L1 His protein, PD-L1 small molecule inhibitors, and PD1 Fc proteins were added to the well in this order, with each 5 μl volume, and were incubated for 15 minutes at room temperature. […] The plate was read using PerkinElmer Envision plate reader and data was analyzed by Prism 6 software.
# Sequence of PD-L1 (Q9NZQ7 19-238): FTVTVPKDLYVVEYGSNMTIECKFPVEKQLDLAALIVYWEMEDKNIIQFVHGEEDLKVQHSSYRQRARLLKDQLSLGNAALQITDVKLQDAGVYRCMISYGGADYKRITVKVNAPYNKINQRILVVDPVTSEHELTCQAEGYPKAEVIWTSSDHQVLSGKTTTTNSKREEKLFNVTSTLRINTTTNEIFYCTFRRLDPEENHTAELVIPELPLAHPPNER
row,Compound,IC50
1,"5-(((1,3-dihydroxypropan-2-yl)amino)methyl)-N-(3′-(5-(((2-hydroxyethyl)amino)methyl)picolinamido)-2,2′-dimethyl-[1,1′-biphenyl]-3-yl)picolinamide [Example 36]",0.4 nM
2,"Cc1c(COc2ccc(C3=NCCN3)c(OCc3cccc(C#N)c3)c2)cccc1-c1ccccc1 [Example 1, 3-((2-(4,5-Dihydro-1H-imidazol-2-yl)-5-((2-methyl-[1,1′-biphenyl]-3-yl)methoxy)phenoxy)methyl)benzonitrile]",280 nM
3,"Cc1c(COc2ccc(-c3ncc[nH]3)c(OCc3cccc(C#N)c3)c2)cccc1-c1ccccc1 [Example 2, 3-[[2-(1H-Imidazol-2-yl)-5-[(2-methyl-3-phenyl-phenyl)methoxy]phenoxy]methyl] benzonitrile]",20000 nM
4,"Cc1c(COc2ccc(C3=NCCN3C)c(OCc3cccc(C#N)c3)c2)cccc1-c1ccccc1 [Example 3, 3-[[2-(1-Methyl-4,5-dihydroimidazol-2-yl)-5-[(2-methyl-3-phenyl-phenyl)methoxy]phenoxy]methyl]benzonitrile]",320 nM
5,"Cc1c(COc2ccc(-c3nccn3C)c(OCc3cccc(C#N)c3)c2)cccc1-c1ccccc1 [Example 4, 3-[[2-(1-methylimidazol-2-yl)-5-[(2-methyl-3-phenyl-phenyl)methoxy]phenoxy]methyl]benzonitrile]",5400 nM
6,"Cc1c(COc2ccc(-c3nc(CO)c[nH]3)c(OCc3cccc(C#N)c3)c2)cccc1-c1ccccc1 [Example 5, 3-[[2-[4-(Hydroxymethyl)-1H-imidazol-2-yl]-5-[(2-methyl-3-phenyl-phenyl)methoxy]phenoxy]methyl]benzonitrile]",16000 nM
7,"Cc1c(COc2ccc(C3=NCCN3CCO)c(OCc3cccc(C#N)c3)c2)cccc1-c1ccccc1 [Example 6, 3-[[2-[1-(2-Hydroxyethyl)-4,5-dihydroimidazol-2-yl]-5-[(2-methyl-3-phenyl-phenyl)methoxy]phenoxy]methyl]benzonitrile]",53 nM
8,"Cc1c(COc2ccc(-c3nccn3CCO)c(OCc3cccc(C#N)c3)c2)cccc1-c1ccccc1 [Example 7, 3-[[2-[1-(2-Hydroxyethyl)imidazol-2-yl]-5-[(2-methyl-3-phenyl-phenyl)methoxy]phenoxy]methyl]benzonitrile]",1800 nM
9,"CC(=O)NCc1c[nH]c(-c2ccc(OCc3cccc(-c4ccccc4)c3C)cc2OCc2cccc(C#N)c2)n1 [Example 8, N-[[2-[2-[(3-Cyanophenyl)methoxy]-4-[(2-methyl-3-phenyl-phenyl)methoxy]phenyl]-1H-imidazol-4-yl]methyl]acetamide]",19000 nM
10,"Cc1c(COc2ccc(C3=NCCCN3)c(OCc3cccc(C#N)c3)c2)cccc1-c1ccccc1 [Example 9, 3-[[5-[(2-Methyl-3-phenyl-phenyl)methoxy]-2-(1,4,5,6-tetrahydropyrimidin-2-yl)phenoxy]methyl]benzonitrile]",150 nM
11,"Cc1c(COc2ccc(C3=NCC(O)CN3)c(OCc3cccc(C#N)c3)c2)cccc1-c1ccccc1 (stereo not drawn) [Example 10, 3-[[2-(5-Hydroxy-1,4,5,6-tetrahydropyrimidin-2-yl)-5-[(2-methyl-3-phenyl-phenyl)methoxy]phenoxy]methyl]benzonitrile]",100 nM
12,"Cc1c(COc2ccc(C3=NCCCN3C)c(OCc3cccc(C#N)c3)c2)cccc1-c1ccccc1 [Example 11, 3-[[2-(1-Methyl-5,6-dihydro-4H-pyrimidin-2-yl)-5-[(2-methyl-3-phenyl-phenyl)methoxy]phenoxy]methyl]benzonitrile]",300 nM
13,"Cc1c(COc2ccc(C3=NCCCN3CCO)c(OCc3cccc(C#N)c3)c2)cccc1-c1ccccc1 [Example 12, 3-[[2-[1-(2-Hydroxyethyl)-5,6-dihydro-4H-pyrimidin-2-yl]-5-[(2-methyl-3-phenyl-phenyl)methoxy]phenoxy]methyl]benzonitrile]",110 nM
14,"Cc1c(COc2ccc(/C(=N/CCO)NCCO)c(OCc3cccc(C#N)c3)c2)cccc1-c1ccccc1 [Example 13, 2-[(3-Cyanophenyl)methoxy]-N,N′-bis(2-hydroxyethyl)-4-[(2-methyl-3-phenyl-phenyl)methoxy]benzamidine]",170 nM
15,"CC(=O)NCC/N=C(\NCCNC(C)=O)c1ccc(OCc2cccc(-c3ccccc3)c2C)cc1OCc1cccc(C#N)c1 [Example 14, N-[2-[[(Z)—N-(2-Acetamidoethyl)-C-[2-[(3-cyanophenyl)methoxy]-4-[(2-methyl-3-phenyl-phenyl)methoxy]phenyl]carbonimidoyl]amino]ethyl]acetamide]",330 nM
16,"Cc1c(COc2ccc(C3=NCC(O)CN3)c(OCc3cncc(C#N)c3)c2)cccc1-c1ccccc1 (stereo not drawn) [Example 15, 5-((2-(5-Hydroxy-1,4,5,6-tetrahydropyrimidin-2-yl)-5-((2-methyl-[1,1′-biphenyl]-3-yl)methoxy)phenoxy)methyl)nicotinonitrile]",15 nM
17,"Cc1c(COc2cc(OCc3cncc(C#N)c3)c(C3=NCC(O)CN3)cc2Cl)cccc1-c1cccc(OCCCN2CCC(O)CC2)c1C (stereo not drawn) [Example 16, 5-[[4-Chloro-5-[[3-[3-[3-(4-hydroxy-1-piperidyl)propoxy]-2-methyl-phenyl]-2-methyl-phenyl]methoxy]-2-(5-hydroxy-1,4,5,6-tetrahydropyrimidin-2-yl)phenoxy]methyl]pyridine-3-carbonitrile]",1.2 nM
18,"Cc1c(COc2cc(OCc3cncc(C#N)c3)c(C3=NCCCN3CCO)cc2Cl)cccc1-c1cccc(OCCCN2CCC(O)CC2)c1C [Example 17, 5-[[4-Chloro-2-[1-(2-hydroxyethyl)-5,6-dihydro-4H-pyrimidin-2-yl]-5-[[3-[3-[3-(4-hydroxy-1-piperidyl)propoxy]-2-methyl-phenyl]-2-methyl-phenyl]methoxy]phenoxy]methyl] pyridine-3-carbonitrile]",1.5 nM
19,"Cc1c(COc2cc(OCc3cncc(C#N)c3)c(C3=NC(C(=O)O)CCN3)cc2Cl)cccc1-c1cccc(OCCCN2CCC(O)CC2)c1C (stereo not drawn) [Example 18, 2-[5-Chloro-2-[(5-cyano-3-pyridyl)methoxy]-4-[[3-[3-[3-(4-hydroxy-1-piperidyl)propoxy]-2-methyl-phenyl]-2-methyl-phenyl]methoxy]phenyl]-1,4,5,6-tetrahydropyrimidine-4-carboxylic acid]",1.2 nM
20,"Cc1c(COc2cc(OCc3cncc(C#N)c3)c(C3=NC(C(=O)O)CN3)cc2Cl)cccc1-c1cccc(OCCCN2CCC(O)CC2)c1C (stereo not drawn) [Example 19, 2-[5-Chloro-2-[(5-cyano-3-pyridyl)methoxy]-4-[[3-[3-[3-(4-hydroxy-1-piperidyl)propoxy]-2-methyl-phenyl]-2-methyl-phenyl]methoxy]phenyl]-4,5-dihydro-1H-imidazole-4-carboxylic acid]",1.2 nM
21,"COC(=O)c1c[nH]c(-c2cc(Cl)c(OCc3cccc(-c4cccc(OCCCN5CCC(O)CC5)c4C)c3C)cc2OCc2cncc(C#N)c2)n1 [Example 20, Methyl 2-(5-chloro-2-((5-cyanopyridin-3-yl)methoxy)-4-((3′-(3-(4-hydroxypiperidin-1-yl)propoxy)-2,2′-dimethyl-[1,1′-biphenyl]-3-yl)methoxy)phenyl)-1H-imidazole-5-carboxylate]",10 nM
22,"Cc1c(COc2cc(OCc3cncc(C#N)c3)c(C3=NCC(OCC(=O)O)CN3)cc2Cl)cccc1-c1cccc(OCCCN2CCC(O)CC2)c1C (stereo not drawn) [Example 21, 2-[[2-[5-Chloro-2-[(5-cyano-3-pyridyl)methoxy]-4-[[3-[3-[3-(4-hydroxy-1-piperidyl)propoxy]-2-methyl-phenyl]-2-methyl-phenyl]methoxy]phenyl]-1,4,5,6-tetrahydropyrimidin-5-yl]oxy] acetic acid]",0.8 nM
23,"Cc1c(COc2cc(OCc3cncc(C#N)c3)c(C3=NCCN3CCO)cc2Cl)cccc1-c1cccc(OCCCN2CCC(O)CC2)c1C [Example 22, 5-[[4-Chloro-2-[1-(2-hydroxyethyl)-4,5-dihydroimidazol-2-yl]-5-[[3-[3-[3-(4-hydroxy-1-piperidyl)propoxy]-2-methyl-phenyl]-2-methyl-phenyl]methoxy]phenoxy]methyl]pyridine-3-carbonitrile]",3.8 nM
24,Cc1c(COc2cc(OCc3cncc(C#N)c3)c(C3=NCC(O)CN3CCO)cc2Cl)cccc1-c1cccc(OCCCN2CCC(O)CC2)c1C (stereo not drawn) [Example 23],14 nM
25,"Cc1c(COc2cc(OCc3cncc(C#N)c3)c(C3=NCCN3CC(=O)O)cc2Cl)cccc1-c1cccc(OCCCN2CCC(O)CC2)c1C [Example 24, 2-[2-[5-Chloro-2-[(5-cyano-3-pyridyl)methoxy]-4-[[3-[3-[3-(4-hydroxy-1-piperidyl)propoxy]-2-methyl-phenyl]-2-methyl-phenyl]methoxy]phenyl]-4,5-dihydroimidazol-1-yl]acetic acid]",1.1 nM
26,"Cc1c(COc2cc(OCc3cncc(C#N)c3)c(C3=NCC(O)CN3)cc2Cl)cccc1-c1cccc(OCC(CN2CCC(O)CC2)c2ccccc2)c1C (stereo not drawn) [Example 25, 5-[[4-chloro-5-[[3-[3-[3-(4-hydroxy-1-piperidyl)-2-phenyl-propoxy]-2-methyl-phenyl]-2-methyl-phenyl]methoxy]-2-(5-hydroxy-1,4,5,6-tetrahydropyrimidin-2-yl)phenoxy]methyl]pyridine-3-carbonitrile]",30 nM
27,"Cc1c(COc2cc(OCc3cncc(C#N)c3)c(C3=NCC(O)CN3)cc2Cl)cccc1-c1cccc(OCC(CO)c2ccccc2)c1C (stereo not drawn) [Example 26, 5-[[4-Chloro-5-[[3-[3-(3-hydroxy-2-phenyl-propoxy)-2-methyl-phenyl]-2-methyl-phenyl]methoxy]-2-(5-hydroxy-1,4,5,6-tetrahydropyrimidin-2-yl)phenoxy]methyl]pyridine-3-carbonitrile]",7.4 nM
